Results published in publication PMC4317228 (Pharmacology Research & Perspectives, 2014).

Tests used:
[1] = biological target: T1, human metabotropic glutamate type 2 receptor (hmGlu2) (Homo sapiens, UniProt Q14416); experiment: [3H]DCG-IV saturation binding, hmGlu2 CHO membranes
T1 construct: gene GRM2; full-length receptor, stably expressed in CHO cells (membranes)

[2] = biological target: T2, human 5HT2A receptor (h5HT2A) (Homo sapiens, UniProt P28223); experiment: [3H]ketanserin displacement
T2 construct: gene HTR2A
T2 sequence (P28223 whole entry): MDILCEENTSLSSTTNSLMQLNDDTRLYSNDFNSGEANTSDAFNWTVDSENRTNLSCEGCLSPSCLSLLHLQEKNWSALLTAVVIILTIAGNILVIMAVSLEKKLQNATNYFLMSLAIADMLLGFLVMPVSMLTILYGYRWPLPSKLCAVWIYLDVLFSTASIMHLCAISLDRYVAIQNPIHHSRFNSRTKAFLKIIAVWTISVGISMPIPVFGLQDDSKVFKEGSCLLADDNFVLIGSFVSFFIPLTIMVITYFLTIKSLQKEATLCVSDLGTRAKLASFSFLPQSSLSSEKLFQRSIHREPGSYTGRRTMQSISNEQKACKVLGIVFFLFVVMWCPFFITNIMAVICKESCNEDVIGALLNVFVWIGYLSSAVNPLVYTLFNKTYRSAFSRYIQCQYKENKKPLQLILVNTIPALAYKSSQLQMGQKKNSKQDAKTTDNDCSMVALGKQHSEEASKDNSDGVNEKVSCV

T1 sequence (Q14416 19-872): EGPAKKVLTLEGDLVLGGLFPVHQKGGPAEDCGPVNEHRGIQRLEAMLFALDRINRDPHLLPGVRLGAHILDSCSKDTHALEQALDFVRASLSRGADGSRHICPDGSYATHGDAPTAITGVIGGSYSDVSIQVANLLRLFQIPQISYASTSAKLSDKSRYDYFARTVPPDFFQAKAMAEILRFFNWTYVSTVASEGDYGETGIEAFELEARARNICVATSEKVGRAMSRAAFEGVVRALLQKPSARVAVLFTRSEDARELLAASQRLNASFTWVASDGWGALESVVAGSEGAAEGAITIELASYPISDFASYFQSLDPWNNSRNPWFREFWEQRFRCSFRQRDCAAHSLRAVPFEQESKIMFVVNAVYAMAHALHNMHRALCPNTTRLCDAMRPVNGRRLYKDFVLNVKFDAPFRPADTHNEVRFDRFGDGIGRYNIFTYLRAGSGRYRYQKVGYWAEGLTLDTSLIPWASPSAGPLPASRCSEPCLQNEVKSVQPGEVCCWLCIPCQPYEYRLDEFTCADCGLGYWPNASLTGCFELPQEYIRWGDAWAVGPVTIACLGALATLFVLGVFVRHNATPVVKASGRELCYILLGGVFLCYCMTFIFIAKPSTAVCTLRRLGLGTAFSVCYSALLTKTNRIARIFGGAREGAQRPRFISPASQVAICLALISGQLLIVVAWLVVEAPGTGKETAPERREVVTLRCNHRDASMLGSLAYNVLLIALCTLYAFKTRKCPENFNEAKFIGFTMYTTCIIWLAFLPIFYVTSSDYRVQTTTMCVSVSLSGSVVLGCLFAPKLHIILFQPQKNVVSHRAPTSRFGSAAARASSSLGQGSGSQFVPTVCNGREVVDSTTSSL

Row | SMILES | Kd [1] [nM] | IC50 [2] [nM]
1 | N[C@H](C(=O)O)C1[C@@H](C(=O)O)[C@@H]1C(=O)O (some centres unmarked) [DCG-IV] | 200 | 
2 | CCCCn1ccc(N2CCC(c3ccc(O)cc3)CC2)c(Cl)c1=O [JNJ-42159052] |  | 102
